Laboratory results reported in doi:10.1101/2020.10.06.328336v1 (biorxiv, 2020).

Tests used:
[1] = target: T1, SARS-CoV-2 RdRp complex (nsp12-nsp7-nsp8) (Severe acute respiratory syndrome coronavirus 2, UniProt P0DTD1); assay: biochemical
[2] = target: T1, SARS-CoV-2 RdRp complex (nsp12-nsp7-nsp8); assay: […]; format: biochemical

SMILES | IC50 [1] | IC50 [2]
O=C(Nc1cc(C(=O)Nc2ccc(S(=O)(=O)O)cc2)cc(C(=O)Nc2ccc(S(=O)(=O)O)cc2)c1)Nc1cc(C(=O)Nc2ccc(S(=O)(=O)O)cc2)cc(C(=O)Nc2ccc(S(=O)(=O)O)cc2)c1 [NF110] | 580 ± 40 nM | 
O=C(Nc1cccc(C(=O)Nc2cc(C(=O)Nc3ccc(S(=O)(=O)O)c4cc(S(=O)(=O)O)cc(S(=O)(=O)O)c34)ccc2F)c1)Nc1cccc(C(=O)Nc2cc(C(=O)Nc3ccc(S(=O)(=O)O)c4cc(S(=O)(=O)O)cc(S(=O)(=O)O)c34)ccc2F)c1 [NF157] | 50 nM | 
O=C(Nc1ccc(C(=O)Nc2ccc(C(=O)Nc3ccc(S(=O)(=O)O)c4cc(S(=O)(=O)O)cc(S(=O)(=O)O)c34)cc2)cc1)Nc1ccc(C(=O)Nc2ccc(C(=O)Nc3ccc(S(=O)(=O)O)c4cc(S(=O)(=O)O)cc(S(=O)(=O)O)c34)cc2)cc1 [NF279] | 50 nM | 
O=C(Nc1cc(C(=O)Nc2ccc(S(=O)(=O)O)cc2S(=O)(=O)O)cc(C(=O)Nc2ccc(S(=O)(=O)O)cc2S(=O)(=O)O)c1)Nc1cc(C(=O)Nc2ccc(S(=O)(=O)O)cc2S(=O)(=O)O)cc(C(=O)Nc2ccc(S(=O)(=O)O)cc2S(=O)(=O)O)c1 [NF449] | 50 nM | 
Cc1ccc(C(=O)Nc2ccc(S(=O)(=O)O)c3cc(S(=O)(=O)O)cc(S(=O)(=O)O)c23)cc1NC(=O)c1cccc(NC(=O)Nc2cccc(C(=O)Nc3cc(C(=O)Nc4ccc(S(=O)(=O)O)c5cc(S(=O)(=O)O)cc(S(=O)(=O)O)c45)ccc3C)c2)c1 [suramin] |  | 260 nM
